Source: US9695153B2, “Oligooxopiperazines for p53 reactivation” (New York University, priority 2013, dated 2017)

How the values were obtained:
[1] = system: p53 transcriptional activity in UMSCC47 cells; experiment: p53 transcriptional activity, Cignal p53 luciferase reporter; type: cell-based, human; conditions: 24 hours; for p53 activity, increase: vs vehicle
Description: Cells were transfected with 100 ng of Cignal p53 reporter (SABiosciences, Valencia, Calif.) using Lipofectamine 2000. Cignal p53 reporter contains tandem repeats of the p53 consensus transcriptional response element. After 48 hours, cells were washed with cold PBS, lysed in passive lysis buffer (Promega), and measured for Firefly/Renilla dual luciferase activities in a luminometer using the Dual-Light System (Applied Biosystems, Foster City, Calif.). […] to control for transfection efficiency. A modification to the protocol was used for compound treatment. UMSCC47 cells were transfected with 100 ng of Cignal p53 reporter. After 24 hours, cells were treated with vehicle, CH1iB (10 μM), cis-platinum (10 μM), or combination of CH1iB (10 μM) and cis-platinum (10 μM) and measured for Firefly/Renilla dual luciferase activities 24 hours post-treatment.

UMSCC47 cells [2] = experiment: Cell proliferation (MTT); type: cell-based, human; conditions: for cell proliferation, single-agent: UMSCC47, 10 μM; for cell proliferation, in combination with cis-platinum: UMSCC47, 10 μM with cis-platinum 10 μM
Description: (§1) Cell proliferation was assessed using the MTT reagent (Roche Molecular Biochemicals, Nutley, N.J.) to detect metabolic active cells. Absorbance was measured at 570 nm in the Spectra Max 190 ELISA reader (Molecular Devices, Sunnyvale, Calif.) after overnight incubation. For clonogenic survival, 200 cells per well were plated in complete growth media and allowed to grow until visible colonies were formed (14 days). Cell colonies were fixed with cold methanol, stained with 0.25% crystal violet in 25% methanol, washed, and air dried. For apoptosis, cells were harvested, washed with cold PBS, and co-stained with Annexin V and propidium iodide according to the manufacturer's protocol (ApoAlert Annexin V-FITC Apoptosis Kit; Clontech). Apoptotic cells were analyzed using BD FACS Calibur (BD Biosciences Corporation, Franklin Lakes, N.J.) at The Ohio State University Comprehensive Cancer Center Analytical Cytometry Core.

UMSCC47 cells [3] = experiment: Clonogenic survival; type: cell-based, human; conditions: UMSCC47, 10 μM, 14 days, vs vehicle
Description: as §1

UMSCC74A cells = experiment: Cell proliferation (MTT); type: cell-based, human; conditions: for cell proliferation, single-agent: HPV-negative UMSCC74A, 10 μM; for efficacy of cis-platinum on proliferation, combination: UMSCC74A, 10 μM with cis-platinum 10 μM
Description: as §1

UMSCC47 cells [4] = experiment: Tumorsphere formation; type: cell-based, human; conditions: UMSCC47, 10 μM, 7 days, vs vehicle
Description: Cells were harvested and seeded in a serum-free defined medium consisting of KSF medium supplemented with epidermal growth factor, basic fibroblast growth factor, insulin, and hydrocortisone in low-attachment plates (Corning Incorporated, Corning, N.Y.) for tumorspheres. Tumorsphere formation efficiency was calculated as the number of tumorspheres (≧50 μm in diameter) formed in 7 days divided by the original number of cells seeded. Tumorsphere diameter was measured using NIS-Elements software.

[5] = target: T1, HPV16 E6-p300 association in UMSCC47 cells (Homo sapiens, UniProt Q09472); experiment: Immunoprecipitation, HPV16 E6-p300 association; type: cell-based; conditions: UMSCC47, 10 μM, 24 hours
T1 construct: endogenous in cells; host or cells: UMSCC47 (HPV16-positive HNSCC cells)
Description: Cells were lysed with NP buffer [50 mM Tris (pH 8.0), 150 mM NaCl, 0.5% deoxycholate, 0.1% SDS, and 1.0% NP-40] containing 1× Protease Inhibitor Cocktail (Roche, Switzerland) at 4° C. with gentle rocking for 15 min. The supernatant was pre-cleared to block nonspecific binding with 50 μL protein A/G Agarose beads (Pierce Biotechnology) that had been pre-washed with NP buffer before use. Equal amounts of anti-E6 antibody (Abcam), anti-p300 antibody (Millipore), or IgG antibody (Cell Signaling) were added to the respective samples. After 4 hours incubation at 4° C., 50 μL pre-washed protein A/G-agarose beads were added to each tube and immunoprecipitation was performed by rocking overnight at 4° C. The immunoprecipitated complexes were washed with NP buffer and then eluted using 2×SDS sample buffer. Eluted sample and 10% of input were resolved by SDS-PAGE for Western blot analysis with anti-E6, anti-p300, or anti-V5 antibodies.

[6] = system: IMR90 (human normal fibroblasts); experiment: Cell proliferation (MTT); type: cell-based; conditions: for efficacy of cis-platinum on proliferation, combination: IMR90 fibroblasts, 10 μM with cis-platinum 10 μM; for cell proliferation, single-agent: human normal IMR90 fibroblasts, 10 μM
Description: as §1

UMSCC47 cells [7] = experiment: Apoptosis, Annexin V FACS; type: cell-based, human; conditions: UMSCC47, 10 μM, 24 hours, vs vehicle
Description: as §1

[8] = system: total and acetylated p53 in UMSCC47 cells; experiment: Western blot of total and acetylated[K382] p53; type: cell-based, human; conditions: 24 hours; for p53 accumulation and acetylated p53 levels: UMSCC47, 10 μM
Description: (§2) Whole cell lysates were mixed with Laemmli loading buffer, boiled, separated by SDS-PAGE, and transferred to a nitrocellulose membrane. Subsequently, immunoblot analyses were performed using antibodies specific to V5 (Invitrogen), p53 (sc-126, Santa Cruz Biotechnology, Santa Cruz, Calif.), or acetylated[[…]]-p53 (2525, Cell Signaling Technology). The signal was developed using the SuperSignal Western Blotting Kit (Pierce, Rockford, Ill.).

[9] = system: total and acetylated p53 in UMSCC74A cells; experiment: Western blot of total and acetylated[K382] p53; type: cell-based, human; conditions: 10 μM, 24 hours
Description: as §2

[10] = system: p53 transcriptional activity in UMSCC74A cells; experiment: p53 transcriptional activity, Cignal p53 luciferase reporter; type: cell-based, human; conditions: HPV-negative UMSCC74A, 10 μM, 24 hours
[11] = system: p300, p53, p21, miR-34a, miR-200c expression in UMSCC74A cells; experiment: Quantitative real-time PCR (TaqMan); type: cell-based, human; conditions: 10 μM, 24 hours
Description: (§3) Cells were extracted for total RNA using the TRIzol® reagent (Invitrogen) or TaqMan PreAmp Cells-to-CT kit (Applied Biosystems). Expression of p300, p53, p21, miR-34a and miR-200c were determined using the Applied Biosystems 7900HT Fast Real-Time PCR System with validated TaqMan gene expression assays (Applied Biosystems). p53, p300, and p21 expression were normalized to GADPH and miR-34a and miR-200c expression were normalized to RNU44 using the ΔΔCt method.

[12] = system: p300, p53, p21, miR-34a, miR-200c expression in UMSCC47 cells; experiment: Quantitative real-time PCR (TaqMan); type: cell-based, human; conditions: UMSCC47, 10 μM, 24 hours
Description: as §3

[13] = HPV-positive UMSCC47 cells, 10 μM
[14] = UMSCC47, CH1iB 10 μM and cis-platinum 10 μM

T1 sequence (Q09472 whole entry): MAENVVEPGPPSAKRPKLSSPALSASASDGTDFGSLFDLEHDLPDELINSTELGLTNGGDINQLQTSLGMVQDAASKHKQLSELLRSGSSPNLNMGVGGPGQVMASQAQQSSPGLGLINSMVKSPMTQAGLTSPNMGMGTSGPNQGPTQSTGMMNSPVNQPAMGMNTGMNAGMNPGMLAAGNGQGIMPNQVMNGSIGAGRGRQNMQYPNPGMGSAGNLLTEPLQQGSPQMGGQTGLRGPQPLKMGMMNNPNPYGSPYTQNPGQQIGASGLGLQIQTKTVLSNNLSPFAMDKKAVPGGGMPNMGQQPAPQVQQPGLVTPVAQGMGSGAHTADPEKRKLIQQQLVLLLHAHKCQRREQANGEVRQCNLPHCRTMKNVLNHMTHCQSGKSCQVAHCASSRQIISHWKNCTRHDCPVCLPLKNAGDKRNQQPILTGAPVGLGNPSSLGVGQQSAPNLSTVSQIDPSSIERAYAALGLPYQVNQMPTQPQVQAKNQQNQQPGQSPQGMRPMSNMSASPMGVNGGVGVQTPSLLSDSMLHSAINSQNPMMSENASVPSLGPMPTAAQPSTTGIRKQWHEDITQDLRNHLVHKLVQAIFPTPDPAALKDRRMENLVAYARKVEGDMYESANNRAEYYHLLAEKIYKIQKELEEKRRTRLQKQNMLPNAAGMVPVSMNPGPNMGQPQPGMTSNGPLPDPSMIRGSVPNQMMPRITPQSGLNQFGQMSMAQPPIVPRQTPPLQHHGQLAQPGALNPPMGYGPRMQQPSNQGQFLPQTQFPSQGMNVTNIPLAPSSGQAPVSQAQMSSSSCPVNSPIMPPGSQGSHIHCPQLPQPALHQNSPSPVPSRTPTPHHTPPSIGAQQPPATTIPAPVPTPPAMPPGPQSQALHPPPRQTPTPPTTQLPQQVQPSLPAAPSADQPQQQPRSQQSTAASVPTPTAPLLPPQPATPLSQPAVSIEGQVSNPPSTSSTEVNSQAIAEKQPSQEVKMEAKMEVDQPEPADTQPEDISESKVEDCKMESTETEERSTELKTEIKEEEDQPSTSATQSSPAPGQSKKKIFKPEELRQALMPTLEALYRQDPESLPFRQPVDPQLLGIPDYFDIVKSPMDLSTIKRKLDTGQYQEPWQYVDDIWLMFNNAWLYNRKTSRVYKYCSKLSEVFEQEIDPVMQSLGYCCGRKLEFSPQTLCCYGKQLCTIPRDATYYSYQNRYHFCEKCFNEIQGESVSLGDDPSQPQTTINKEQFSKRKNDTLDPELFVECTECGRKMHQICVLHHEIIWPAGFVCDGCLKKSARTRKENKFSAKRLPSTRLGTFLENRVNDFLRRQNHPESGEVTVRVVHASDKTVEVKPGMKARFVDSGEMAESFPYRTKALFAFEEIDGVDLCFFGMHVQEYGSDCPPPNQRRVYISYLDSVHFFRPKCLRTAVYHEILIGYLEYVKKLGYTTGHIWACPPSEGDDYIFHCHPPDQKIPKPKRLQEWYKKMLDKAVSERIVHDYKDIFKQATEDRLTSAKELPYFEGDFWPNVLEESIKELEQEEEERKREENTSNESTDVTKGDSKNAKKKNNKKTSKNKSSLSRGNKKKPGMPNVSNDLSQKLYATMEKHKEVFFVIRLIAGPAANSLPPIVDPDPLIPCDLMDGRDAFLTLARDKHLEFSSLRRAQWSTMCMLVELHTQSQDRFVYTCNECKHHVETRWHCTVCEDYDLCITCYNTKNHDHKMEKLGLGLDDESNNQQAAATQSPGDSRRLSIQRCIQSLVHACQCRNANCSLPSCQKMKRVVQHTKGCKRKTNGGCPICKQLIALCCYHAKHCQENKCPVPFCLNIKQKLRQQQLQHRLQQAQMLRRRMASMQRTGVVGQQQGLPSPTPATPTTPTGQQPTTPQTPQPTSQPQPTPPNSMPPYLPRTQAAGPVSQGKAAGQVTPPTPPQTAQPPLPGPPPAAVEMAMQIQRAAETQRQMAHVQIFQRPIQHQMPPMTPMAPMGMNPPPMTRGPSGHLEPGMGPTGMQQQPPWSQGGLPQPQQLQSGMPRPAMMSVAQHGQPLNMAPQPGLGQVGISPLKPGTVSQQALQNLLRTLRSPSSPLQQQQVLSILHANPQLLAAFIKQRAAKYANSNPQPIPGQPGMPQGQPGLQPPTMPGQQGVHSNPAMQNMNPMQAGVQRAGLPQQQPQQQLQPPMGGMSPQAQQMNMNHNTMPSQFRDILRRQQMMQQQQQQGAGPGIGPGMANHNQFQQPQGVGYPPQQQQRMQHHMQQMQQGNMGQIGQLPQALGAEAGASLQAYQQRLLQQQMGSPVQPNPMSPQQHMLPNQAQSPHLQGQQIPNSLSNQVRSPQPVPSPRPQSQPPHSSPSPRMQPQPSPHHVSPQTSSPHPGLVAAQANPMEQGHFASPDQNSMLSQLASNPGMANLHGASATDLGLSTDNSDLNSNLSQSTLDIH

Row | Substance | p53 activity, increase [1, 13] | cell proliferation, single-agent (UMSCC47 cells [2]) | cell proliferation, in combination with cis-platinum (UMSCC47 cells [2]) | effect of cis-platinum on p53 activity, combination [1, 14] | clonogenic survival, reduction (inhibition) (UMSCC47 cells [3]) | cell proliferation, single-agent (UMSCC74A cells) | efficacy of cis-platinum on proliferation, combination (UMSCC74A cells) | tumorsphere formation, reduction (UMSCC47 cells [4]) | association between E6 and p300 [5] | efficacy of cis-platinum on proliferation, combination [6] | cell proliferation, single-agent [6] | apoptosis, enhancement (UMSCC47 cells [7]) | p53 accumulation and acetylated p53 levels [8] | effect of cis-platinum on p53 accumulation and acetylation, combination [8, 14] | p53 levels [9] | p53 activity [10] | expression of p300, p53, and p53-regulated genes [11] | p21, miR-34a, and miR-200c expression [12] | p53 activity [1, 13]
1 | XELA*RAADQ-NH2 (ELXRAADQ; not fully specified; hydrogen bond surrogate crosslink; C-terminal amide; CH1iB-MUT) [specificity control for CH1iB in which one leucine residue is mutated to alanine] | 14% | no effect | no effect |  |  |  |  |  |  |  |  |  |  |  |  |  |  |  | 
2 | XELA*RALDQ-NH2 (ELXRALDQ; not fully specified; hydrogen bond surrogate crosslink; C-terminal amide; CH1iB) [hydrogen bond surrogate helix mimic of HIF-1α targeting site B of p300 CH1] | 71% | inhibited | potentiated the anti-proliferative efficacy of cis-platinum | potentiated the effect of cis-platinum | 35% | had no effect | did not augment | 20% | reduced | did not augment | had no effect | 353% | enhanced | potentiated the effect of cis-platinum | did not modulate | did not modulate | unchanged | modest but significant increase | 
3 | XTAA*DCEYNAR (TAXDCEYNAR; not fully specified; hydrogen bond surrogate crosslink; CH1iA) [hydrogen bond surrogate stabilized α-helical mimic of HIF-1α targeting site A of p300 CH1, reference compound] |  | inactive |  |  |  | had no effect | did not augment |  | not | did not augment | had no effect |  | had no effect |  | did not modulate | did not modulate | unchanged |  | had no effect
